1 compound from article PMC2628638, “Catalytic inhibition of topoisomerase II by a novel rationally designed ATP-competitive purine analogue” (BMC Chemical Biology, 2009) can be followed below.

The test system of one test is HeLa T-Rex cells. The experiment in a line: Gamma-H2AX In-Cell Western assay (doxorubicin-induced DNA damage). The format is cell-based. As to conditions: Homo sapiens, HeLa; 30 minutes pretreatment, then 1 μM doxorubicin for 2 hours; read-out: IC50, suppression of doxorubicin-induced γH2AX signal. The method, then: In-Cell Western analysis was carried out as follows. HeLa T-Rex cells were seeded at the cell density of 15 × 10^3 cells per well in black 96-well plates (Greiner Bio-one Vacuette, St Gallen, Switzerland). The day post-seeding, cells were pretreated with increasing concentrations of either ICRF-193, QAP 1 or vehicle (DMSO) for 30 minutes followed by a 2 hours treatment with 1 μM of doxorubicin, or were only treated with the same concentrations of ICRF-193, QAP 1 or vehicle (DMSO) for 2 hours. Treatments were done in triplicate. […] Finally, cells were washed 4 times with 50 μl per well of PBS containing 0.1% Tween-20 for 3 minutes, liquid was removed and plates were kept at 4°C until reading. γH2AX signals were read using the LI-COR Odyssey Infrared Imager with the Odyssey v1.1 software using the 800 nm channel. Blank values correspond to non-specific γH2AX signal detected in wells without primary antibody staining. […] The resulting values for each sample were normalized to the DNA quantity by measuring the corresponding TO-PRO-3 iodide signals. The TO-PRO-3 iodine signals were detected by using the 700 nm channel. The percentage of γH2AX signal was determined for each concentration of ICRF193 and QAP 1 with or without doxorubicin treatment by setting the value for the treatment with vehicle and 1 μM doxorubicin to 100%. […]

Another test deals with HL-60 cells. Kind of test: Proliferation assay over 72 hours. The format is cell-based. As to conditions: Homo sapiens, read-out: half-maximal growth inhibitory concentration (GI50).
Test [1] has as its system panel of serine/threonine/tyrosine protein kinases. The experiment in a line: Kinase selectivity profiling, standard panel of kinases. As to conditions: in vitro, versus topoisomerase II. The format is biochemical. From the text:
Based on homology structural models of the target, a purine scaffold was designed interactively using the Macromodel modeling software. The designed purine scaffold was subsequently used as a substructure query to search the Novartis compound collection. Around 50 molecules were retrieved in this manner and screened in an ATPase assay using purified full length tagged human topoisomerase II alpha. […] Subsequently, we carried out kinetic analysis with QAP 1 in order to corroborate the mode of action. […] The data were analyzed by non-linear regression analysis using the equations corresponding to competitive, uncompetitive, and mixed inhibition (see Methods) and a statistical analysis (F-test; p ≤ 0.05) was carried out to identify the best model. […] A linearized representation (Eady-Hofstee) of one of these experiments is depicted in Figure 1D. To confirm the mode of action of QAP 1, inhibition studies were also carried out in the presence of different concentration of the inhibitor at different ATP concentrations and the IC50 values were determined. […] Next, QAP 1 was tested against a panel of kinases in a radiometric assay. With the exception of subtle inhibition of the Ret and c-Src tyrosine kinases no effect of the compound was observed on other kinases in the panel, even at the highest concentration tested (Table 1). […]

As to `CCc1nc2nc(Nc3ccc4nc(OCCN5CCOCC5)ccc4c3)nc(NC(C)(C)C)c2[nH]1` [QAP 1], in the test on HeLa T-Rex cells, the IC50 – broadly, the concentration needed to halve the response being measured – is roughly 1100 nM. The GI50 in the test with HL-60 cells came out at 8 µM. Further, the “selectivity over a standard panel of kinases” value in test [1] was “greater than 10 fold”.
